Laboratory results as given in patent publication US20040142317A1, “Use of amino acid transporter atbo,+ as a delivery system for drugs and prodrugs” (priority 2003, published 2004).
“And” between values parts separate entries of the source, which are not always exact repeats. Identical values can stand only once.

What was measured:
[1] = biological target: T1, mouse ATB^0,+ (Mus musculus, UniProt Q9JMA9); conditions: for inward current in the absence of Cl− (sodium gluconate) / inward current in the absence of Na+ (NMDG chloride) / Current in X. laevis oocytes: compound 1 mM; for Current in X. laevis oocytes: NaCl medium pH 7.5, voltage clamp; for K0.5 (concentration inducing half-maximal current; Michaelis-Menten constant): oocytes, membrane potential −50 mV; for Current in X. laevis oocytes (nA), L-isomer: L-amino acid 1 mM, NaCl pH 7.5
T1 sequence (Q9JMA9 1-638): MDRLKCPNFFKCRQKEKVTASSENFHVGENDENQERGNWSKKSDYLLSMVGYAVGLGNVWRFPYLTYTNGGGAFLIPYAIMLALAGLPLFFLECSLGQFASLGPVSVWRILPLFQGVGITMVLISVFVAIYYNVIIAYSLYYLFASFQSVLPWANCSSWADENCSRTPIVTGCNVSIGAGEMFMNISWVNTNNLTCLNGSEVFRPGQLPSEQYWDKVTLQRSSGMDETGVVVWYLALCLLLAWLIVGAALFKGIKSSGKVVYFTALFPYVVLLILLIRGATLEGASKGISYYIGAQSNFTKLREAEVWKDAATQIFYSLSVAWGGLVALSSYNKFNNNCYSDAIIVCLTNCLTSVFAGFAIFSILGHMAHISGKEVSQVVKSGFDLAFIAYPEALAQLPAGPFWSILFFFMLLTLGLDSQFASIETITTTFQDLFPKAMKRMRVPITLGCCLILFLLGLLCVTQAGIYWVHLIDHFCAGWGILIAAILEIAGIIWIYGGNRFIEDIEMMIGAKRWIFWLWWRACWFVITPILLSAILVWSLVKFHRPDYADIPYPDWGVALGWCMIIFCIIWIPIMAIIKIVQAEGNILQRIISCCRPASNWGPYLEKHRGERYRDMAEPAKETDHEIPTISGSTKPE

[2] = biological target: T1, mouse ATB^0,+
[3] = biological target: T1, mouse ATB^0,+; experiment: Transport of radiolabeled substrates in HRPE cells expressing cloned mouse ATB0,+; type: cell-based; conditions: HRPE cells
[4] = biological target: T1, mouse ATB^0,+; conditions: for effect on ATB^0,+-mediated glycine transport (in words): glycine 10 μM, HRPE cells
[5] = biological target: T1, mouse ATB^0,+; experiment: Inhibition of ATB0,+-specific [3H]-L-NNA transport by amino acids in HRPE cells; type: cell-based; conditions: amino acids 5 mM; [3H]-L-NNA 10 μM
[6] = biological target: T2, ATB^0 (Homo sapiens, UniProt Q15758); experiment: cell-based
T2 sequence (Q15758 1-541): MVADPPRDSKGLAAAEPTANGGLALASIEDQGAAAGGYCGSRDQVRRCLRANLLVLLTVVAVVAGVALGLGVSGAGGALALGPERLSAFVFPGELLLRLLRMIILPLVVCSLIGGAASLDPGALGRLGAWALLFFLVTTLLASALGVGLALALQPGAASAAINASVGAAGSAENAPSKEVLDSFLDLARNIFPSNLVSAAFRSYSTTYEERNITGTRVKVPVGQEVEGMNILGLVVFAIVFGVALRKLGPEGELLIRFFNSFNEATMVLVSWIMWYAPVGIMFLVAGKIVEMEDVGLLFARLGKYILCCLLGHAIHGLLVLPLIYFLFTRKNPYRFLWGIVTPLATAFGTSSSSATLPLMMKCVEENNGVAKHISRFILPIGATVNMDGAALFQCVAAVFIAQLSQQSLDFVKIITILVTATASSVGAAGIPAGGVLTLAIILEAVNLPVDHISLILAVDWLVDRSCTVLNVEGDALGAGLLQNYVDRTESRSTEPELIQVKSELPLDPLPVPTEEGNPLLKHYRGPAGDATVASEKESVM

| SMILES | Current in X. laevis oocytes [1] | Current in X. laevis oocytes (nA), L-isomer [1] | also measured |
| --- | --- | --- | --- |
| CSC(N)=NCCC[C@H](N)C(=O)O [L-MTC] | 116±34 nA and 118 ± 34 nA | – | inward current in the absence of Cl− (sodium gluconate) [1]: no measurable currents; inward current in the absence of Na+ (NMDG chloride) [1]: no measurable currents; K0.5 (concentration inducing half-maximal current; Michaelis-Menten constant) [1]: 1.36 ± 0.08 mM |
| CSCC[C@H](N)C(=O)O [L-Methionine, Methionine] | – | 278 ± 26 nA | – |
| NC(=NCCC[C@H](N)C(=O)OCc1ccccc1)N[N+](=O)[O-] [L-NABE] | 16 ± 2 nA | – | – |
| COC(=O)[C@@H](N)CCCNC(=N)N[N+](=O)[O-] [L-NAME] | 11 ± 2 nA | – | – |
| CN(C)C(N)=NCCC[C@H](N)C(=O)O [L-NDMA] | 85 ± 15 nA | – | – |
| CC(=N)NCCCC[C@H](N)C(=O)O [L-NIL] | 89 ± 18 nA | – | inward current in the absence of Cl− (sodium gluconate) [1]: ~10 nA; inward current in the absence of Na+ (NMDG chloride) [1]: no measurable inward current; K0.5 (concentration inducing half-maximal current; Michaelis-Menten constant) [1]: 2.72 ± 0.29 mM |
| CC(=N)NCCC[C@H](N)C(=O)O [L-NIO] | 71 ± 16 nA | – | K0.5 (concentration inducing half-maximal current; Michaelis-Menten constant) [1]: 2.24 ± 0.35 mM |
| CCNC(=N)NCCC[C@H](N)C(=O)O [L-NMEA] | 138 ± 16 nA | – | – |
| CNC(=N)NCCC[C@H](N)C(=O)O [L-NMMA] | 411 ± 76 nA | – | activity [2]: 36% |
| N=C(NCCC[C@H](N)C(=O)O)N[N+](=O)[O-] [L-NNA, N^ω-nitro-L-arginine] | 200 ± 92 nA | – | Michaelis-Menten constant (Kt) of transport via mouse ATB^0,+ ([3]; radiolabeled substrate): 0.75 ± 0.10 mM; transport in ATB^0,+ cDNA-transfected cells compared to vector-transfected cells ([3]; radiolabeled substrate): 4 fold; activity [2]: 21%; IC50 [4]: 560 ± 40 µM |
| NC(=S)NCCC[C@H](N)C(=O)O [L-TC] | 497 ± 104 nA | – | – |
| CC(C)[C@H](N)C(=O)O [L-Valine, Valine] | – | 310 ± 24 nA | – |
| CC(C)C[C@H](N)C(=O)O [Leucine] | – | 187 ± 14 nA | – |
| NCCCC[C@H](N)C(=O)O [Lysine] | 545 ± 95 nA | 321 ± 34 nA | – |
| CNC(C)(C)C(=O)O [MeAIB] | – | – | inhibition of ATB^0,+-specific L-NNA transport [5]: did not inhibit |
| NCCC[C@H](N)C(=O)O [Ornithine] | 131 ± 27 nA | – | – |
| N[C@@H](Cc1ccccc1)C(=O)O [Phenylalanine] | – | 275 ± 58 nA | Ki [6]: 4230 ± 999 µM; Ki [4]: 68.6 ± 2.4 µM |
| N[C@@H](CO)C(=O)O [Serine] | – | 470 ± 42 nA | inhibition of ATB^0,+-specific L-NNA transport [5]: inhibition |
| C[C@@H](O)[C@H](N)C(=O)O [Threonine] | – | 233 ± 12 nA | – |
| N[C@@H](Cc1c[nH]c2ccccc12)C(=O)O [Tryptophan] | – | 112 ± 4 nA | – |
| C[N+](C)(C)CC(=O)O [betaine] | – | – | effect on ATB^0,+-mediated glycine transport (in words) [4]: little or no effect |
| CC(C)[C@H](N)C(=O)OCCOCn1cnc2c(=O)[nH]c(N)nc21 [valacyclovir, L-valine α-ester of acyclovir] | – | – | transport in ATB^0,+-expressing cells versus vector-transfected cells (in words) ([3]; [14C]phenylglycine 10 μM or [8-3H]-valacyclovir 1.25 μM): three times higher |
| NCCCC(=O)O [γ-Aminobutyrate, γ-aminobutyrate] | – | – | effect on ATB^0,+-mediated glycine transport (in words) [4]: little or no effect |
